14 compounds from publication PMC11541474, “Toward New Therapeutics for Visceral Leishmaniasis: Efficacy and Mechanism of Action of Amides Inspired by Gibbilimbol B” (ACS Omega, 2024) can be followed below.

The subject of series [1] is L. (L.) infantum intracellular amastigotes. As to the kind of experiment: ex-vivo assay using intracellular amastigotes of L. (L.) infantum. Type of series: cell-based, Leishmania (L.) infantum. Conditions: for EC50: Leishmania infantum, L. (L.) infantum intracellular amastigotes, read-out: Ec50 Amastigote (μm) ± SD; for S.I. amastigote (selectivity index): CC50 against NCTC cells/EC50 against amastigotes. As to the method: (§1) Evaluation of in vitro activity against promastigote and amastigote forms of L. (L.) infantum was performed as previously reported assays.[40]−[43] The CC50 and EC50 values were calculated using sigmoidal dose–response curves using Graph Pad Prism 5.0 software. One-way ANOVA testing with Tukey’s multiple comparison tests were used for evaluation of the statistical significance (p-value) of differences between the samples, which were tested in duplicate and all assays were repeated at least twice.

In series [2] the test system is L. (L.) infantum promastigotes. The series can be described thus: in vitro activity against promastigote forms of L. (L.) infantum. Type of series: cell-based, Leishmania (L.) infantum. The following applies: for EC50: Leishmania infantum, L. (L.) infantum promastigotes, read-out: Ec50 Promastigote (μm) ± SD. As to the method: as §1
A short description of series [3]: in vitro mammalian toxicity against NCTC cells. Type of series: cell-based. Conditions: 50% cytotoxic concentration, read-out: Cc50 Nctc (μm) ± SD. As to the method:
Evaluation of in vitro mammalian toxicity against NCTC cells was performed as previously described.[40] The selectivity index was determined using the following equation: CC50 against NCTC cells/EC50 against amastigotes.[44] The CC50 and EC50 values were calculated using sigmoidal dose–response curves using Graph Pad Prism 5.0 software. One-way ANOVA testing with Tukey’s multiple comparison tests were used for evaluation of the statistical significance (p-value) of differences between the samples, which were tested in duplicate and all assays were repeated at least twice.

Series [4] deals with L. (L.) infantum promastigotes. Type of series: cell-based, Leishmania (L.) infantum. The following applies: 9 at 141.5 μM, 10 at 110.1 μM, after 240 min. As to the method: Figure 5 Evaluation of ROS in promastigotes of L. (L.) infantum treated with compounds 9 (141.5 μM) or 10 (110.1 μM). […]
Measurements of ROS were conducted as previously reported.[48] Briefly, promastigotes were treated with compounds 9 (141.5 μM) or 10 (110.1 μM) in HBSS+Glu at 24 °C using H2DCFDA (Molecular Probes). Fluorescence was measured using a fluorimetric microplate reader (FilterMax F5Multi-Mode, Molecular Devices) with excitation and emission filters at 485 and 520 nm, respectively.[48] Untreated and treated parasites (H2O2 - 40 μM) were used as negative and positive controls, respectively.

Series [5] has as its system L. (L.) infantum promastigotes. The format is cell-based, Leishmania (L.) infantum. The source says:
Changes in the plasma membrane integrity of Leishmania spp. can lead to cell death due to pore formation, pH imbalance, and nutrient-transport failure. Initially, the fluorescent probe Sytox Green was employed to analyze the permeability of the plasma membrane. […] Untreated parasites were used as a negative control for normalization (0% permeabilization) whereas the nonionic surfactant Triton X-100 was used for as positive control (100% permeabilization).
Figure 4 Plasma membrane permeability in L. (L.) infantum promastigotes after 4 h of treatment with compound (A) 9 (141.5 μM) or (B) 10 (110.1 μM), using the fluorescent probe Sytox Green (p < 0.0001). Negative control: untreated parasites; positive control: Triton X-100 (TX-100).
Assays for determination of plasma membrane integrity of L. (L.) infantum were conducted as previously reported.[46] Briefly, compounds 9 (141.5 μM) and 10 (110.1 μM) were added to different wells and the resulting fluorescence was measured using a fluorimetric microplate reader (FilterMax F5Multi-Mode, Molecular Devices). Triton X-100 (0.5%, v/v) and untreated parasites were used as positive negative controls, respectively.[47]

A word on the EC50: it is the concentration giving half of the maximal effect. What is called CC50 is the concentration giving 50% cytotoxicity.

In the case of `CCC/C=C/CCCNC(=O)c1ccccc1` [Compound 1, (E)-N-(Oct-4-en-1-yl)benzamide], the half-maximal effective concentration (EC50) in series [1] is over 100 µM. Also, in series [2], the “activity against promastigotes (in words)” value (“activity” below) is “inactive” and the concentration giving a half-maximal response (EC50) is over 100 µM. Further, in series [3], the cytotoxic concentration (CC50) was over 200 µM.
For `CCC/C=C/CCCNC(=O)c1ccc(C)cc1` [Compound 2, (E)-4-Methyl-N-(oct-4-en-1-yl)benzamide], the EC50 was over 100 µM in series [1] and 66.9 ± 6.4 µM in series [2]. Further, in series [3], the CC50 was over 200 µM.
As to `CCC/C=C/CCCNC(=O)c1ccc(OC)cc1` [Compound 3, (E)-4-Methoxy-N-(oct-4-en-1-yl)benzamide], the 50% effective concentration (EC50) in series [1] is over 100 µM. For the same compound, in series [2], the “activity” value was “inactive” and the EC50 is over 150 µM. Moreover, the CC50 in series [3] was over 200 µM.
`CCC/C=C/CCCNC(=O)c1ccc(F)cc1` [Compound 4, (E)-4-Fluoro-N-(oct-4-en-1-yl)benzamide]: the EC50 in series [1] was over 100 µM; in series [2] it was 67.4 ± 1.3 µM. The cytotoxic concentration (CC50) in series [3] was over 200 µM.
As to `CCC/C=C/CCCNC(=O)c1ccc(Cl)cc1` [Compound 5, (E)-4-Chloro-N-(oct-4-en-1-yl)benzamides], the EC50 in series [1] was over 100 µM; in series [2] it was 73.3 ± 4.3 µM. For the same compound, in series [3], the CC50 is over 200 µM.
For `CCC/C=C/CCCNC(=O)c1ccc(C(C)(C)C)cc1` [Compound 6, (E)-4-(tert-butyl)-N-(oct-4-en-1-yl)benzamide] the same measures were over 100 µM, 66 ± 1 µM and over 200 µM.
Regarding `CCC/C=C/CCCNC(=O)c1ccc([N+](=O)[O-])cc1` [Compound 7, (E)-4-Nitro-N-(oct-4-en-1-yl)benzamide], the EC50 in series [1] was over 100 µM; in series [2], 49.8 ± 4 µM. In addition, the CC50 in series [3] came out at 158 ± 37.3 µM.
The like results for `CCCCC(CC)CNC(=O)c1ccc(F)cc1` (centres unmarked) [Compound 8, N-(2-Ethylhexyl)-4-fluorobenzamide] were, in that order, over 100 µM, 64.1 ± 3.5 µM and 156.8 ± 1 µM.
For `CCCCC(CC)CNC(=O)c1ccc(C)cc1` (centres unmarked) [Compound 11, N-(2-Ethylhexyl)-4-methylbenzamide] the same measures were over 100 µM, 66.3 ± 6 µM and over 200 µM.
On to `CCCCC(CC)CNC(=O)c1ccc(C(C)(C)C)cc1` (centres unmarked) [Compound 12, N-(2-Ethylhexyl)-4-(tert-butyl)benzamide], for which, in series [1], the “S.I. amastigote (selectivity index)” value is recorded as over 39.2 and the EC50 was determined as 5.1 ± 1.9 µM. In series [2], the “activity” value was “inactive” and the EC50 is over 150 µM. The cytotoxic concentration (CC50) in series [3] was over 200 µM.
Take `CCCCCC/C=C/CCc1ccc(O)cc1` [Gibbilimbol B, gibbilimbol B]: in series [1], the “S.I. amastigote (selectivity index)” value is over 2.1 and the EC50 is 95.1 ± 1.5 µM. The EC50 in series [2] was 99.4 ± 2.1 µM. The CC50 in series [3] is over 200 µM.
With `CCCCCCCCCCCCCCCCOP(=O)([O-])OCC[N+](C)(C)C` [Miltefosine, miltefosine, reference compound], in series [1], the “S.I. amastigote (selectivity index)” value is on record as 18.4 and the EC50 is 6.5 ± 3 µM. The EC50 in series [2] was determined as 5.1 ± 0.6 µM. For the same compound, the CC50 in series [3] stood at 120 ± 4.2 µM.
For the compound `[N-]=[N+]=[N-].[Na+]` [Sodium azide, reference compound], in series [4], the “ROS levels compared with negative control (H2DCFDA)” value is “maximum production of ROS”.
As to Triton X-100 [reference compound], in series [5], the “permeabilization of the plasma membrane (Sytox Green)” value is given as “maximum permeabilization”.
